Where two headings read alike, the source gives them in different places.
What was measured:
[1] = tested on: normolipemic rats; assay: Reduction of serum lipid values in normolipemic rats (8 days oral); type: in vivo, rat; conditions: 8 doses, male rats; for serum cholesterol, change in percentage (A: referred to the initial value) / serum triglyceride, change in percentage (A: referred to the initial value): column A; for serum cholesterol, change in percentage (B: referred to the untreated control group) / serum triglyceride, change in percentage (B: referred to the untreated control group): column B
Method: 1. Male rats having a normal serum lipid content were treated for eight days with different daily doses mentioned in Table 1. The values given in that Table stand for a change in the serum concentrations of certain lipid classes. The doses administered per os by means of an esophageal sound were 100, 30 and 10 mg/kg/day. Generally, prior to and after the treatment, blood samples were taken and the concentration of cholesterol in the serum was determined according to the method of Lauber and Richterich and that of triglycerides according to the method of Eggstein and Kreutz. In the examples of the following Table 1, the changes in the serum lipid values due to the treatment with the substances of the invention are defined as follows:
a. The changes in percent in the final value of the treated group, referred to the initial value of the treated group, the initial value being 100 percent, and
b. the change in the final value of the treated group, referred to the final value of an accompanying untreated control group, the untreated control group's value being defined as 100 percent. Thus, the value given in columns A is the change in percentage referred to the initial value, whereas the value given in columns B is the change in percentage of the treated group, referred to the untreated control group.

[2] = tested on: dietetic-medicamentous hyperlipemia of male rats; assay: Action on the dietetic-medicamentous hyperlipemia of male rats; type: in vivo; conditions: Rattus norvegicus, po, 192 h, 100 mg/kg/day p.o., 8 days, male rats on cholesterol diet
Text: All the animals were fed with a diet food containing 2% of cholesterol, 2% of sodium cholate, 0.3% of methyl-thiouracil, 20% of coco fat and 44% of cane sugar. The serum lipid concentration of the animals treated with the compounds of the invention was compared to that of an untreated control group on the same diet, which diet causes the serum cholesteral concentration to rise within 1 week to about 10 times the initial value, that of the serum triglycerides to 3 times and that of the phospho-lipids in the serum to 4 times the initial value. The lipid phosphorus was determined according to the method of Messrs. Boehringer Mannheim W. Germany. At the same time as the diet was offered, the compounds of the invention were administered once a day to groups of rats, each containing 10 animals, over a period of 8 days by means of an esophageal sound. The change in percentage in the serum lipid concentration as compared to the control group (diet without active substance) is indicated in Table 2.

[3] = tested on: hypertriglyceridemia induced by carbohydrates in male rats; assay: Action on the hypertriglyceridemia induced by carbohydrates (fructose) in male rats; type: in vivo; conditions: Rattus norvegicus, 72 h, 3-day oral pre-treatment, vs untreated control, read-out: Change in percentage of hypertriglyceridemia induced by carbohydrates
[4] = tested on: rats that had been fed fructose doses; assay: Hypoglycemic activity: lowering of the blood sugar level in rats fed fructose doses; type: in vivo, rat; conditions: 100 mg/kg once a day over 3 days, 24 hours after last administration, vs placebo control group
Method: The hypoglycemic activity of some bis(4-hydroxy-phenyl) alkanoic acid derivatives of formulae I and II could be established by administering once a day, over 3 days, 100 mg of the active compound per kg of test animal to rats that had been fed fructose doses and by taking blood samples 24 hours after the last administration in order to determine the blood sugar level by means of an autoanalyzer.
The lowering of the blood sugar content indicated in following Table 4 refers to a control group treated with placebos (blank doses).

[5] = tested on: mice; conditions: Table 3
[6] = in vivo; conditions: mouse, po
[7] = read-out: serum cholesterol, change in percentage as compared to the control group
[8] = read-out: serum lipid phosphorus, change in percentage as compared to the control group
[9] = read-out: serum triglyceride, change in percentage as compared to the control group

## CC(C)(C)c1cc(C(C(=O)O)c2cc(C(C)(C)C)c(O)c(C(C)(C)C)c2)cc(C(C)(C)C)c1O [Example 3, Bis(4'-hydroxy-3',5'-di-tert.butyl-phenyl)ethanoic acid]
[1]; 10 mg/kg/day p.o.
  serum cholesterol, change in percentage (A: referred to the initial value): -24%
  serum cholesterol, change in percentage (B: referred to the untreated control group): -21%
  serum triglyceride, change in percentage (B: referred to the untreated control group): -29%
[1]; 30 mg/kg/day p.o.
  serum cholesterol, change in percentage (A: referred to the initial value): -32%
  serum triglyceride, change in percentage (A: referred to the initial value): -39%
  serum cholesterol, change in percentage (B: referred to the untreated control group): -22%
  serum triglyceride, change in percentage (B: referred to the untreated control group): -46%
[1]; 100 mg/kg/day p.o.
  serum cholesterol, change in percentage (A: referred to the initial value): -61%
  serum triglyceride, change in percentage (A: referred to the initial value): -70%
  serum cholesterol, change in percentage (B: referred to the untreated control group): -52%
  serum triglyceride, change in percentage (B: referred to the untreated control group): -60%
[2]; [7]
  change in vivo at 100 mg/kg: -23%
[2]; [8]
  change in vivo at 100 mg/kg: -26%
[2]; [9]
  change in vivo at 100 mg/kg: -44%
[3]
  change in vivo at 30 mg/kg: -36%
  change in vivo at 100 mg/kg: -37%
[4]
  lowering of the blood sugar level in per cent: -15 per cent
[5]
  LD50 mice p.o.: 6000 to 8000 mg/kg
[6]
  LD50: 6000 to 8000 mg/kg

## CCCCOC(=O)CC(C)(c1ccc(O)c(C(C)(C)C)c1)c1ccc(O)c(C(C)(C)C)c1 [Example 7, 3,3-bis(4'-hydroxy-3'-tert.-butyl-phenyl)butanoic acid butyl ester]
[1]; 100 mg/kg/day p.o.
  serum cholesterol, change in percentage (A: referred to the initial value): -29%
  serum triglyceride, change in percentage (A: referred to the initial value): -53%
  serum cholesterol, change in percentage (B: referred to the untreated control group): -26%
  serum triglyceride, change in percentage (B: referred to the untreated control group): -23%
[2]; [7]
  change in vivo at 100 mg/kg: -30%
[2]; [8]
  change in vivo at 100 mg/kg: -30%
[2]; [9]
  change in vivo at 100 mg/kg: -34%
[3]
  change in vivo at 30 mg/kg: -19%
  change in vivo at 100 mg/kg: -35%
[4]
  lowering of the blood sugar level in per cent: -24 per cent
[5]
  LD50 mice p.o.: > 8000 mg/kg
[6]
  LD50: > 8000 mg/kg
